One assay concerns the target Adenosine A2A (Homo sapiens (Human), UniProt P29274). The experiment in a line: A2A Tag-Lite HTRF assay. Type of assay: binding. An excerpt: Example C. A2A Tag-Lite® HTRF Assay
The target of assay [1] is human adenosine A2B receptor (Homo sapiens (Human), UniProt P29275). The assay is described as follows: Adenosine A2B Receptor Cyclic AMP GS Assay. Type of assay: cell-based. The settings on record: HEK-293 cells expressing human A2B, agonist NECA 12 nM. How it is done: Example B. Adenosine A2B Receptor Cyclic AMP GS Assay
Stably transfected HEK-293 cells expressing the human adenosine A2B receptor (Perkin Elmer) were maintained in MEM culture medium with 10% FBS and 100 μg/mL Geneticin (Life Technologies). 18 to 24 hours prior to assay, geneticin was removed from culture. The cisbio cAMP-GS Dynamic kit utilizing the FRET (Fluorescence Resonance Energy Transfer) technology was used to measure cAMP accumulation in the cells. Compounds of the present disclosure at an appropriate concentration were mixed with 10000 cells/well in white 96 well half area plates (Perkin Elmer) for 30 min at room temperature gently shaking. Agonist, NECA (R&D Technologies) at 12 nM was added to each well for 60 min at room temperature gently shaking. Detection reagents, d2-labeled cAMP (acceptor) and anti-cAMP cryptate (donor) were added to each well for 60 min at rt gently shaking. Plates were read on Pherastar (BMG Labtech), fluorescence ratio 665/620 was calculated and EC50 determination was performed by fitting the curve of percent of control versus the log of the compound concentration using GraphPad Prism.

The mark [2] stands for this setting: Tag-Lite Adenosine A2A labeled cells, fluorescent ligand 12.5 nM, read-out: A2A_Ki.
[3] abbreviates: read-out: A2A_Ki, Tag-Lite Adenosine A2A labeled cells, fluorescent ligand 12.5 nM.

Read-outs that look alike come from different tables or passages of the source. A value given as a limit tells only on which side of the number the result lay.

Data on 23 molecules can be found in patent publication US11161850B2, “Fused pyrazine derivatives as A2A / A2B inhibitors” (Incyte Corporation, priority 2018, dated 2021).

Sequence of Adenosine A2A (P29274 whole entry): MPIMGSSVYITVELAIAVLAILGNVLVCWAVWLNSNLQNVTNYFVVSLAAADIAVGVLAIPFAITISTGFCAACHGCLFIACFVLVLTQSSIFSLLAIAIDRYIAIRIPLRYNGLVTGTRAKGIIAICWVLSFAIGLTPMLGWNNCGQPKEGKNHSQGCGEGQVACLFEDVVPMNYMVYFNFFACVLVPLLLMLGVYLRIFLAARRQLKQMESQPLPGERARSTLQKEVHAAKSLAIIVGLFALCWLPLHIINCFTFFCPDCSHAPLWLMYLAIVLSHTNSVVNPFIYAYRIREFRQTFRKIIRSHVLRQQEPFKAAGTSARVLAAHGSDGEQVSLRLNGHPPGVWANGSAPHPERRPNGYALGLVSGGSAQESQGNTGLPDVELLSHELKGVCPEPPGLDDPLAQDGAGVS
Sequence of human adenosine A2B receptor (P29275 whole entry): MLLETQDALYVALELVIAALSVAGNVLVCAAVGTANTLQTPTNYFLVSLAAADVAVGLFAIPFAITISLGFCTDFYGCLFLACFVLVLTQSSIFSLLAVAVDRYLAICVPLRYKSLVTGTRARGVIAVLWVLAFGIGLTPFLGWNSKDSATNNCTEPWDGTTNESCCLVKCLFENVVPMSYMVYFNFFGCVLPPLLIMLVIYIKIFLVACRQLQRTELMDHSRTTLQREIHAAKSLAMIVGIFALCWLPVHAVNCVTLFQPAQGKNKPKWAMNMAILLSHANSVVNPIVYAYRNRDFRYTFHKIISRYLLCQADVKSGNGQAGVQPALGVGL

As to `Cn1cnc(S(=O)(=O)N2CCCC2Cc2nc3c(N)nc(-c4cccc(C#N)c4F)cn3n2)c1` (stereo not shown) [Example 90, 3-(8-amino-2-((1-((1-methyl-1H-imidazol-4-yl)sulfonyl)pyrrolidin-2-yl)methyl)-[1,2,4]triazolo[1,5-a]pyrazin-6-yl)-2-fluorobenzonitrile], the Ki at Adenosine A2A (setting [2]) is less than 10 nM. The same molecule registered an EC50 in assay [1] (A2B_cAMP_EC50 (nM)) of 100 to 1000 nM.
The corresponding values for `Cc1ncoc1-c1c(-c2cccc(C#N)c2)nc(N)c2nc(C(N)c3ccccc3F)nn12` (stereo not shown) [Example 80, 3-(8-amino-2-(amino(2-fluorophenyl)methyl)-5-(4-methyloxazol-5-yl)-[1,2,4]triazolo[1,5-a]pyrazin-6-yl)benzonitrile] are less than 10 nM and less than 10 nM.
In turn, `N#Cc1cccc(-c2nc(N)c3nc(C(O)c4ccccc4Cl)nn3c2-c2ccncn2)c1` (single isomer, unassigned) [Example 57, 3-(8-Amino-2-((2-chlorophenyl)(hydroxy)methyl)-5-(pyrimidin-4-yl)-[1,2,4]triazolo[1,5-a]pyrazin-6-yl)benzonitrile] had a Ki on Adenosine A2A of less than 10 nM. Also, in assay [1] (A2B_cAMP_EC50 (nM)), the EC50 is less than 10 nM.
With `N#Cc1cccc(-c2nc(N)c3nc(Cc4c(F)cccc4CN4CC(C#N)C4)nn3c2-c2ccncn2)c1` [Example 73, 1-(2-((8-amino-6-(3-cyanophenyl)-5-(pyrimidin-4-yl)-[1,2,4]triazolo[1,5-a]pyrazin-2-yl)methyl)-3-fluorobenzyl)azetidine-3-carbonitrile], the Ki at Adenosine A2A (setting [2]) was less than 10 nM. The same molecule registered an EC50 in assay [1] (A2B_cAMP_EC50 (nM)) of less than 10 nM.
As to `CN1CCN(c2cc(-c3cc4c(N)nc(-c5cccc(C#N)c5)c(-c5ccncc5)n4n3)ccn2)CC1` [Example 26, 3-(4-Amino-2-(2-(4-methylpiperazin-1-yl)pyridin-4-yl)-7-(pyridin-4-yl)pyrazolo[1,5-a]pyrazin-6-yl)benzonitrile], at Adenosine A2A (setting [2]), the Ki is less than 10 nM. This molecule gave an EC50 in assay [1] (A2B_cAMP_EC50 (nM)) of 10 to 100 nM.
The corresponding values for `CCCn1nccc1-c1c(-c2cccc(C#N)c2)nc(N)c2cc(C(=O)NCC)nn12` [Example 2, 4-Amino-6-(3-cyanophenyl)-N-ethyl-7-(1-propyl-1H-pyrazol-5-yl)pyrazolo[1,5-a]pyrazine-2-carboxamide] are less than 10 nM and 10 to 100 nM.
Take `Cc1n[nH]cc1-c1c(-c2cccc(C#N)c2)nc(N)c2nc(C(O)c3c(F)cccc3F)nn12` (single isomer, unassigned) [Example 103, 3-(8-amino-2-((2,6-difluorophenyl)(hydroxy)methyl)-5-(3-methyl-1H-pyrazol-4-yl)-[1,2,4]triazolo[1,5-a]pyrazin-6-yl)benzonitrile]: the Ki on Adenosine A2A (setting [3]) is less than 10 nM. Further, the EC50 in assay [1] (read-out: A2B_cAMP_EC50) was less than 10 nM.
Consider `Cn1cc(Cn2cc(-c3cccc(F)c3Cc3nc4c(N)nc(-c5cccc(C#N)c5F)cn4n3)cn2)cn1` [Example 99, 3-(8-amino-2-(2-fluoro-6-(1-((1-methyl-1H-pyrazol-4-yl)methyl)-1H-pyrazol-4-yl)benzyl)-[1,2,4]triazolo[1,5-a]pyrazin-6-yl)-2-fluorobenzonitrile], for which the Ki at Adenosine A2A (setting [2]) is less than 10 nM. Also, in assay [1] (A2B_cAMP_EC50 (nM)), the EC50 is 10 to 100 nM.
Regarding `N#Cc1cccc(-c2nc(N)c3cc(Nc4ccccc4)nn3c2-c2ccncc2)c1` [Example 25, 3-(4-Amino-2-(phenylamino)-7-(pyridin-4-yl)pyrazolo[1,5-a]pyrazin-6-yl)benzonitrile], the Ki at Adenosine A2A (setting [2]) is less than 10 nM. This molecule also registered an EC50 in assay [1] (A2B_cAMP_EC50 (nM)) of 10 to 100 nM.
`N#Cc1cccc(-c2nc(N)c3nc(C(O)c4c(F)cccc4F)nn3c2-c2ccncn2)c1` (single isomer, unassigned) [Example 49, 3-(8-Amino-2-((2,6-difluorophenyl)(hydroxy)methyl)-5-(pyrimidin-4-yl)-[1,2,4]triazolo[1,5-a]pyrazin-6-yl)benzonitrile] displayed a Ki at Adenosine A2A of less than 10 nM. The EC50 in assay [1] (A2B_cAMP_EC50 (nM)) is less than 10 nM.
The molecule `N#Cc1cccc(-c2nc(N)c3nc(C(O)c4cccc(F)c4F)nn3c2-c2ccncn2)c1` (single isomer, unassigned) [Example 53, 3-(8-Amino-2-((2,3-difluorophenyl)(hydroxy)methyl)-5-(pyrimidin-4-yl)-[1,2,4]triazolo[1,5-a]pyrazin-6-yl)benzonitrile] displayed a Ki at Adenosine A2A of less than 10 nM. In addition, in assay [1] (A2B_cAMP_EC50 (nM)), the EC50 was less than 10 nM.
`Cn1cc(-c2cccc(F)c2Cc2nc3c(N)nc(-c4cccc(C#N)c4F)cn3n2)cn1` [Example 83, 3-(8-amino-2-(2-fluoro-6-(1-methyl-1H-pyrazol-4-yl)benzyl)-[1,2,4]triazolo[1,5-a]pyrazin-6-yl)-2-fluorobenzonitrile]: the Ki on Adenosine A2A (setting [2]) is less than 10 nM. The molecule further had an EC50 in assay [1] (A2B_cAMP_EC50 (nM)) of less than 10 nM.
Turning to `N#Cc1cccc(-c2nc(N)c3nc(Cc4c(F)cccc4CN4CCNC(=O)C4)nn3c2-c2ccncn2)c1` [Example 70, 3-(8-amino-2-(2-fluoro-6-((3-oxopiperazin-1-yl)methyl)benzyl)-5-(pyrimidin-4-yl)-[1,2,4]triazolo[1,5-a]pyrazin-6-yl)benzonitrile], the Ki on Adenosine A2A (setting [2]) was less than 10 nM. The molecule further yielded an EC50 in assay [1] (A2B_cAMP_EC50 (nM)) of 10 to 100 nM.
The corresponding values for `Cc1nc(C(O)C(F)F)c(-c2c(-c3cccc(C#N)c3)nc(N)c3cc(Cc4ccccn4)nn23)o1` (stereo not shown) [Example 35, 3-(4-Amino-7-(4-(2,2-difluoro-1-hydroxyethyl)-2-methyloxazol-5-yl)-2-(pyridin-2-ylmethyl)pyrazolo[1,5-a]pyrazin-6-yl)benzonitrile] are less than 10 nM and less than 10 nM.
The corresponding values for `CS(=O)(=O)CCn1cc(-c2cccc(F)c2Cc2nc3c(N)nc(-c4cccc(C#N)c4F)cn3n2)cn1` [Example 112, 3-(8-amino-2-(2-fluoro-6-(1-(2-(methylsulfonyl)ethyl)-1H-pyrazol-4-yl)benzyl)-[1,2,4]triazolo[1,5-a]pyrazin-6-yl)-2-fluorobenzonitrile] are less than 10 nM and less than 10 nM.
The corresponding values for `Cc1ncoc1-c1c(-c2cccc(C#N)c2)nc(N)c2nc(C(NCCO)c3c(F)cccc3F)nn12` (stereo not shown) [Example 79, 3-(8-amino-2-((2,6-difluorophenyl)((2-hydroxyethyl)amino)methyl)-5-(4-methyloxazol-5-yl)-[1,2,4]triazolo[1,5-a]pyrazin-6-yl)benzonitrile] are less than 10 nM and less than 10 nM.
For `Cn1nncc1-c1c(-c2cccc(C#N)c2)nc(N)c2cc(Cc3ccccn3)nn12` [Example 37, 3-(4-Amino-7-(1-methyl-1H-1,2,3-triazol-5-yl)-2-(pyridin-2-ylmethyl)pyrazolo[1,5-a]pyrazin-6-yl)benzonitrile], the Ki on Adenosine A2A (setting [2]) is less than 10 nM. Further, the EC50 in assay [1] (A2B_cAMP_EC50 (nM)) was less than 10 nM.
In the case of `N#CCCn1cc(-c2cccc(F)c2Cc2nc3c(N)nc(-c4cccc(C#N)c4F)cn3n2)cn1` [Example 117, 3-(8-amino-2-(2-(1-(2-cyanoethyl)-1H-pyrazol-4-yl)-6-fluorobenzyl)-[1,2,4]triazolo[1,5-a]pyrazin-6-yl)-2-fluorobenzonitrile], the Ki at Adenosine A2A (setting [2]) is less than 10 nM. The EC50 in assay [1] (A2B_cAMP_EC50 (nM)) was less than 10 nM.
Consider `N#Cc1cccc(-c2nc(N)c3nc(Cc4ccccc4CN4CC[C@H](O)C4)nn3c2-c2ccncn2)c1` [Example 123, (S)-3-(8-Amino-2-(2-((3-hydroxypyrrolidin-1-yl)methyl)benzyl)-5-(pyrimidin-4-yl)-[1,2,4]triazolo[1,5-a]pyrazin-6-yl)benzonitrile], for which the Ki on Adenosine A2A (setting [2]) was less than 10 nM. Besides, in assay [1] (A2B_cAMP_EC50 (nM)), the EC50 is 10 to 100 nM.
Taken in the same sequence, the figures for `N#Cc1cccc(-c2nc(N)c3nc(Cc4c(F)cccc4CN[C@H]4C[C@@H](C(=O)O)C4)nn3c2-c2ccncn2)c1` [Example 71, (1S,3S)-3-((2-((8-amino-6-(3-cyanophenyl)-5-(pyrimidin-4-yl)-[1,2,4]triazolo[1,5-a]pyrazin-2-yl)methyl)-3-fluorobenzyl)amino)cyclobutane-1-carboxylic Acid] were less than 10 nM and less than 10 nM.
For the molecule `Cn1cc(-c2ccccc2Cc2nc3c(N)nc(-c4cccc(C#N)c4)c(-c4ccncn4)n3n2)cn1` [Example 41, 3-(8-Amino-2-(2-(1-methyl-1H-pyrazol-4-yl)benzyl)-5-(pyrimidin-4-yl)-[1,2,4]triazolo[1,5-a]pyrazin-6-yl)benzonitrile], the Ki on Adenosine A2A (setting [2]) is less than 10 nM. Besides, the EC50 in assay [1] (A2B_cAMP_EC50 (nM)) was less than 10 nM.
In the case of `Cc1cc(-c2c(-c3cccc(C#N)c3)nc(N)c3nc(C(O)c4c(F)cccc4F)nn23)cc(C)n1` (single isomer, unassigned) [Example 95, 3-(8-amino-2-((2,6-difluorophenyl)(hydroxy)methyl)-5-(2,6-dimethylpyridin-4-yl)-[1,2,4]triazolo[1,5-a]pyrazin-6-yl)benzonitrile], the Ki at Adenosine A2A (setting [3]) is less than 10 nM. In assay [1] (read-out: A2B_cAMP_EC50), the EC50 was 10 to 100 nM.
In the case of `Cn1nc(-c2c(-c3cccc(C#N)c3)nc(N)c3nc(Cc4ccccn4)nn23)ccc1=O` [Example 29, 3-(8-Amino-5-(1-methyl-6-oxo-1,6-dihydropyridazin-3-yl)-2-(pyridin-2-ylmethyl)-[1,2,4]triazolo[1,5-a]pyrazin-6-yl)benzonitrile], at Adenosine A2A, the Ki is less than 10 nM. In assay [1] (A2B_cAMP_EC50 (nM)), this molecule displayed an EC50 of less than 10 nM.
